Laboratory results as given in US10259796B2, “Oxaspiro[2.5]octane derivatives and analogs” (Zafgen, Inc., priority 2011, dated 2019).
Read-outs that look alike come from different tables or passages of the source.

Key:
recombinant human MetAP2 = target: T1, recombinant human MetAP2 (Homo sapiens, UniProt P50579); assay: MetAP2 enzyme assay (inhibition of recombinant MetAP2, Met-Gly-Met-Met substrate); assay type: biochemical; settings: 50 nM
T1 construct: made in house; host or cells: High Five insect cells (Bac-to-Bac baculovirus)
Method: Exemplary procedures for expression and purification of MetAP2 are shown in Griffith et al. (PNAS (1998) 95(26):15183-15188). Briefly, recombinant His-tagged human MetAP2 is expressed by using a Bac-to-Bac baculovirus expression system (GIBCO/BRL). Recombinant baculovirus stocks are generated and amplified as per the manufacturer's instructions. Protein is harvested 36 hr after baculovirus infection of two 15-cm plates of High Five cells.
The cell pellet are weighed and lysed (in 5 ml/g of wet pellet) in pre-chilled lysis buffer [buffer B+1% Nonidet P-40/1 mM phenymethylsulfonyl fluoride (PMSF)/2 μg/ml leupeptin/2 μg/ml aprotinin/1 μg/ml pepstatin]. The lysate is incubated on ice for 10 min and centrifuged at 10,000×g for 10 min. […] The Talon resin is pelleted by centrifugation at 1,200×g for 3 min and washed with 4×10 ml of buffer B. During the final wash, the resin is slurried into a Bio-Rad Econo column. The 6×His-tagged MetAP2 is eluted with 6 ml of 50 mM imidazole in buffer B, and 0.5 ml fractions are collected. The amount and purity of recombinant MetAP2 is analyzed by the absorbance at 280 nm and SDS/PAGE (10% gel). The fractions containing the highest amounts of MetAP2 are pooled and dialyzed against 3 liters of buffer B overnight before storage at 4° C.
An enzyme assay is performed in a 96-well format as described in Griffith et al. (PNAS (1998) 95(26):15183-15188). […] To begin the enzymatic reaction, Met-Gly-Met-Met is added to a final concentration of 4 mM and incubated at 37° C. The reaction is quenched after 20 min by adding EDTA to a concentration of 10 mM. Released methionine is quantitated as described in Ben-Bassat et al. (J Bacteriol (1987) 169:751-757).
IC50 values are calculated and compounds herein are determined to be active inhibitors of MetAP2, with some having nanomolar activities.

[1] = Cell Based Assay (inhibition range)
[2] = Mice weight loss, 7 day, 1 mg/kg/day oral gavage, diet-induced obese mice; assay type: in vivo; settings: Mus musculus, 168 h, read-out: Mice Wt Loss 7 day % WL 1 mpk
From the text: Lean body mass is important to normal function in subjects. Substantial loss of lean body mass is not a desirable consequence of a therapy for an overweight or obese subject. A study is undertaken to analyze weight loss with respect to lean body mass.
Mice are divided into two groups, a diet-induced obese group and a lean group (control). For the diet-induced obese group, C57BL/6NTac mice maintained prior to and during the study on a diet containing 60% fat on a kilocalorie basis are further divided into two groups, fifteen mice per group. Average body weight of these diet-induced obese mice is 40 g at the start of the study. For the lean group, fifteen C57BLI6NTac mice are maintained on a diet containing 4.3% by weight fat prior to and during the study. Average body weight of these lean mice is 33 g at the start of the study. Daily food consumption is also recorded.
Compounds of the invention are administered to one of the diet-induced obese mice groups by oral gavage as a solution in 10% DMSO, at dose of 1 mg/kg/day, 7 days. The other diet-induced obese mice group and the lean mice group are not administered anything.

[3] = 4 hr, read-out: MetAP2 Enzyme Assay 4 hr 50 nM
[4] = diet-induced obese C57BL/6NTac mice, oral gavage, 1 mg/kg/day, 7 days
[5] = 1 hr, read-out: MetAP2 Enzyme Assay 1 hr 50 nM
[6] = 2 hr, read-out: MetAP2 Enzyme Assay 2 hr 50 nM

T1 sequence (P50579 whole entry): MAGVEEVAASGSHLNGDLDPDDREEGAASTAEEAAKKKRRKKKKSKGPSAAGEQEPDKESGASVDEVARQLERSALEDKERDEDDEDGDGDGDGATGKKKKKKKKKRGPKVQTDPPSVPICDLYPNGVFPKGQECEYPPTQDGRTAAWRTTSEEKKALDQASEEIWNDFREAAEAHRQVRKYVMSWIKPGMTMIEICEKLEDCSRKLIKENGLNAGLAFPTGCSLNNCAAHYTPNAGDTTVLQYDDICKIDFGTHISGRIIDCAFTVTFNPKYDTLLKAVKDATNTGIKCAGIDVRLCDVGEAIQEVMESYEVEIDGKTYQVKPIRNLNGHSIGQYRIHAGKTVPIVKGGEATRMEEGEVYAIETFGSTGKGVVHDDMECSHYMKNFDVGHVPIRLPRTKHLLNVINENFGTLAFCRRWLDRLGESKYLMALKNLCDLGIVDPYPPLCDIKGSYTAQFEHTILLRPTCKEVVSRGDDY

Structure (SMILES) | inhibition at 0.05 µM (recombinant human MetAP2; [3]) | IC50 ([1]; cells printed in nM) | change in vivo at 1 mg/kg [2, 4] | inhibition at 0.05 µM (recombinant human MetAP2; [5]) | inhibition at 0.05 µM (recombinant human MetAP2; [6]) | IC50 ([1]; in uM) | change in vivo at 1 mg/kg ([2]; po)
CO[C@@H]1[C@H](OC(=O)N[C@@H](C(=O)NCCCN(C)C)C(C)C)CC[C@]2(CO2)[C@H]1[C@@]1(C)O[C@@H]1CC=C(C)C [Example 32] | 54% | < 10 nM | 0.3% | – | – | – | –
CO[C@@H]1[C@H](NCCCCCCCCCC(=O)O)CC[C@]2(CO2)[C@H]1[C@@]1(C)O[C@@H]1CC=C(C)C [Example 7] | 0% | – | – | 0% | 0% | > 1000 nM | 0.5%
CCCC/C=C/C[C@H]1O[C@]1(C)[C@H]1[C@H](OC)[C@H](O)CC[C@]12CO2 [Example 24] | 0% | 10 to 100 nM | – | 0% | 0% | – | –
C=C1CC[C@]2(CO2)[C@@H]([C@@]2(C)O[C@@H]2C/C=C/CCCC)[C@@H]1OC [Example 22] | 0% | – | – | 0% | 0% | > 1000 nM | –
CO[C@H]1[C@H]([C@@]2(C)O[C@@H]2CC=C(C)C)[C@]2(CCC1(F)F)CO2 [Example 17] | 40% | – | – | 29% | 44% | > 1000 nM | 0.1%
CCCCCCCCCCS[C@@H]1CC[C@]2(CO2)[C@@H]([C@@]2(C)O[C@@H]2CC=C(C)C)[C@@H]1OC [Example 18] | 0% | – | 0% | 0% | 0% | > 1000 nM | –
CCCC/C=C/C[C@H]1O[C@]1(C)[C@H]1[C@H](OC)C(=O)CC[C@]12CO2 [Example 25] | 40% | 10 to 100 nM | – | 19% | 40% | – | 0.1%
COC(=O)CCCCCCCCCO[C@H]1CC[C@]2(CO2)[C@@H]([C@@]2(C)O[C@@H]2CC=C(C)C)[C@@H]1OC [Example 6] | 0% | – | 1.7% | 0% | 0% | > 1000 nM | –
CO[C@@H]1C(=O)C(C)C[C@]2(CO2)C1[C@@]1(C)O[C@@H]1CC=C(C)C (stereo partly drawn) [Example 53, (3R,5S)-5-methoxy-7-methyl-4-((2R,3R)-2-methyl-3-(3-methylbut-2-enyl)oxiran-2-yl)-1-oxaspiro[2.5]octan-6-one] | 28% | – | – | 0% | 0% | – | –
CCOC(=O)CCCCC/C=C/C[C@H]1OC1(C)[C@H]1[C@H](OC)C(=O)CC[C@]12CO2 (stereo partly drawn) [Example 59] | 0% | 10 to 100 nM | – | – | – | – | –
CO[C@@H]1C(=O)CC[C@]2(CO2)[C@H]1C1(C)O[C@@H]1CC(=O)NCc1ccccc1 (stereo partly drawn) [Example 58] | 0% | – | – | – | – | – | –
CO[C@@H]1[C@H](OC(=O)/C=C/C=C/C=C/C=C/C(=O)O)CC[C@]2(CO2)[C@H]1[C@@]1(C)O[C@@H]1CC=C(C)C [Example 36] | 64% | < 10 nM | – | – | – | – | –
CO[C@@H]1C(=O)CC[C@@](C)(O)[C@H]1[C@@]1(C)O[C@@H]1CCC(C)C [Example 54, (2S,4R)-4-hydroxy-3-((2R,3R)-3-isopentyl-2-methyloxiran-2-yl)-2-methoxy-4-methylcyclohexanone] | 0% | – | – | 0% | 0% | – | –
CO[C@@H]1C(=CC=C(C)C)CC[C@]2(CO2)[C@H]1[C@@]1(C)O[C@@H]1CC=C(C)C [Example 21] | 0% | – | – | 0% | 0% | > 1000 nM | –
